Laboratory results published in ChEMBL document CHEMBL6153110, “Peptide Double-Stapling and Arginine N-Glycosylation Triggered the Development of Therapeutic Antimicrobial Peptides Capable of Killing Drug-Resistant Bacteria in Mice” (J Med Chem, 2025).
In brackets after ≈: the same amount, converted by molar mass. Positions of bridges follow the written chain, without caps; N, C: chain ends. Non-standard residues stand in square brackets, D forms with d. Residues, ends and D or L forms follow the SMILES beside them. R8 = C=CCCCCCC[C@@](C)(N)C(=O)O; S5 = C=CCCC[C@](C)(N)C(=O)O

Legend:
Assay type in all cases: functional
[1] = system: Staphylococcus aureus; assay: Antimicrobial activity against methicillin-resistant Staphylococcus aureus ATCC 43300 assessed as growth inhibition measured after 8 hrs incubation by standard broth dilution assay
[2] = system: Streptococcus pneumoniae; assay: Antimicrobial activity against Streptococcus pneumoniae ATCC 49619 assessed as growth inhibition measured after 8 hrs incubation by standard broth dilution assay
[3] = system: Klebsiella pneumoniae; assay: Antimicrobial activity against Klebsiella pneumoniae ATCC 13883 assessed as growth inhibition measured after 8 hrs incubation by standard broth dilution assay
[4] = system: Pseudomonas aeruginosa; assay: Antimicrobial activity against Pseudomonas aeruginosa ATCC 27853 assessed as growth inhibition measured after 8 hrs incubation by standard broth dilution assay

SMILES | MIC [1] [mg/L] | MIC [2] [mg/L] | MIC [3] [mg/L] | MIC [4] [mg/L]
CC(=O)N[C@@H](CC(C)C)C(=O)N[C@@H](CCCCN)C(=O)N[C@@H](CCCNC(=N)N)C(=O)N[C@H](C(=O)N[C@@H](Cc1c[nH]c2ccccc12)C(=O)N[C@@H](CCCCN)C(=O)N[C@@H](CCCNC(=N)N)C(=O)N[C@H](C(=O)N[C@@H](Cc1ccccc1)C(=O)N[C@@H](CCCCN)C(=O)N[C@@H](CC(C)C)C(=O)N[C@@H](CC(C)C)C(=O)N[C@@H](CCCCN)C(=O)N[C@@H](CCCNC(=N)N)C(=O)N[C@@H](Cc1ccc(O)cc1)C(=O)N[C@@H](Cc1c[nH]c2ccccc12)C(=O)N[C@@H](CCCNC(=N)N)C(=O)N[C@@H](CCC(N)=O)C(=O)N[C@@]1(C)CCC/C=C\CCC[C@@](C)(C(=O)N[C@@H](CCCNC(=N)N)C(N)=O)NC(=O)[C@@H]2CCCN2C(=O)[C@H](CCCCN)NC(=O)[C@H](CCCCN)NC1=O)C(C)C)C(C)C (Ac-LKRVWKRVFKLLKRYWRQ[S5]KKP[S5]R-NH2; staple (Z) 19-23) | 19.1 (≈ 5.78 µM) | 9.6 (≈ 2.9 µM) | 38 (≈ 11.5 µM) | 5 (≈ 1.51 µM)
CC(=O)N[C@@H](CC(C)C)C(=O)N[C@@H](CCCCN)C(=O)N[C@@H](CCCNC(=N)N)C(=O)N[C@H](C(=O)N[C@@H](Cc1c[nH]c2ccccc12)C(=O)N[C@@H](CCCCN)C(=O)N[C@@H](CCCNC(=N)N)C(=O)N[C@H](C(=O)N[C@@H](Cc1ccccc1)C(=O)N[C@@H](CCCCN)C(=O)N[C@@H](CC(C)C)C(=O)N[C@@H](CC(C)C)C(=O)N[C@@H](CCCCN)C(=O)N[C@@H](CCCNC(=N)N)C(=O)N[C@@H](Cc1ccc(O)cc1)C(=O)N[C@@H](Cc1c[nH]c2ccccc12)C(=O)N[C@@H](CCCNC(=N)N)C(=O)N[C@@]1(C)CCC/C=C\CCC[C@@](C)(C(=O)N[C@H](C(=O)N[C@@H](CCCNC(=N)N)C(N)=O)C(C)C)NC(=O)[C@H](CCCCN)NC(=O)[C@H](CCCCN)NC(=O)[C@H](CC(C)C)NC1=O)C(C)C)C(C)C (Ac-LKRVWKRVFKLLKRYWR[S5]LKK[S5]VR-NH2; staple (Z) 18-22) | 4.9 (≈ 1.49 µM) | 37.7 (≈ 11.5 µM) | 38 (≈ 11.5 µM) | 9.8 (≈ 2.98 µM)
CC(=O)N[C@@H](CC(C)C)C(=O)N[C@@H](CCCCN)C(=O)N[C@@H](CCCNC(=N)N)C(=O)N[C@H](C(=O)N[C@@H](Cc1c[nH]c2ccccc12)C(=O)N[C@@H](CCCCN)C(=O)N[C@@H](CCCNC(=N)N)C(=O)N[C@H](C(=O)N[C@@H](Cc1ccccc1)C(=O)N[C@@H](CCCCN)C(=O)N[C@@H](CC(C)C)C(=O)N[C@@H](CC(C)C)C(=O)N[C@@H](CCCCN)C(=O)N[C@@H](CCCNC(=N)N)C(=O)N[C@@H](Cc1ccc(O)cc1)C(=O)N[C@]1(C)CCCCCC/C=C\CCC[C@@](C)(C(=O)N[C@@H](CCCNC(=N)N)C(N)=O)NC(=O)[C@@H]2CCCN2C(=O)[C@H](CCCCN)NC(=O)[C@H](CCCCN)NC(=O)[C@H](CC(C)C)NC(=O)[C@H](CCC(N)=O)NC(=O)[C@H](CCCNC(=N)N)NC1=O)C(C)C)C(C)C (Ac-LKRVWKRVFKLLKRY[R8]RQLKKP[S5]R-NH2; staple (Z) 16-23) | 9.7 (≈ 2.96 µM) | 19 (≈ 5.8 µM) | 2.5 (≈ 0.764 µM) | 2.6 (≈ 0.794 µM)
CC(=O)N[C@@H](CC(C)C)C(=O)N[C@@H](CCCCN)C(=O)N[C@@H](CCCNC(=N)N)C(=O)N[C@H](C(=O)N[C@@H](Cc1c[nH]c2ccccc12)C(=O)N[C@@H](CCCCN)C(=O)N[C@@H](CCCNC(=N)N)C(=O)N[C@H](C(=O)N[C@@H](Cc1ccccc1)C(=O)N[C@@H](CCCCN)C(=O)N[C@@H](CC(C)C)C(=O)N[C@@H](CC(C)C)C(=O)N[C@@H](CCCCN)C(=O)N[C@@H](CCCNC(=N)N)C(=O)N[C@@H](Cc1ccc(O)cc1)C(=O)N[C@@]1(C)CCC/C=C\CCC[C@@](C)(C(=O)N[C@@H](CCCCN)C(=O)N2CCC[C@H]2C(=O)N[C@H](C(=O)N[C@@H](CCCNC(=N)N)C(N)=O)C(C)C)NC(=O)[C@H](CC(C)C)NC(=O)[C@H](CCC(N)=O)NC(=O)[C@H](CCCNC(=N)N)NC1=O)C(C)C)C(C)C (Ac-LKRVWKRVFKLLKRY[S5]RQL[S5]KPVR-NH2; staple (Z) 16-20) | 2.5 (≈ 0.78 µM) | 19 (≈ 5.93 µM) | 38 (≈ 11.9 µM) | 5 (≈ 1.56 µM)
CC(=O)N[C@@H](CC(C)C)C(=O)N[C@@H](CCCCN)C(=O)N[C@@H](CCCNC(=N)N)C(=O)N[C@H](C(=O)N[C@@H](Cc1c[nH]c2ccccc12)C(=O)N[C@@H](CCCCN)C(=O)N[C@@H](CCCNC(=N)N)C(=O)N[C@H](C(=O)N[C@@H](Cc1ccccc1)C(=O)N[C@@H](CCCCN)C(=O)N[C@@H](CC(C)C)C(=O)N[C@@H](CC(C)C)C(=O)N[C@@H](CCCCN)C(=O)N[C@@H](CCCNC(=N)N)C(=O)N[C@]1(C)CCCCCC/C=C\CCC[C@@](C)(C(=O)N[C@H](C(=O)N[C@@H](CCCNC(=N)N)C(N)=O)C(C)C)NC(=O)[C@H](CCCCN)NC(=O)[C@H](CCCCN)NC(=O)[C@H](CC(C)C)NC(=O)[C@H](CCC(N)=O)NC(=O)[C@H](CCCNC(=N)N)NC(=O)[C@H](Cc2c[nH]c3ccccc23)NC1=O)C(C)C)C(C)C (Ac-LKRVWKRVFKLLKR[R8]WRQLKK[S5]VR-NH2; staple (Z) 15-22) | 4.9 (≈ 1.49 µM) | 37.7 (≈ 11.4 µM) | 38 (≈ 11.5 µM) | 9.9 (≈ 3 µM)
CC(=O)N[C@@H](CC(C)C)C(=O)N[C@@H](CCCCN)C(=O)N[C@@H](CCCNC(=N)N)C(=O)N[C@H](C(=O)N[C@@H](Cc1c[nH]c2ccccc12)C(=O)N[C@@H](CCCCN)C(=O)N[C@@H](CCCNC(=N)N)C(=O)N[C@H](C(=O)N[C@@H](Cc1ccccc1)C(=O)N[C@@H](CCCCN)C(=O)N[C@@H](CC(C)C)C(=O)N[C@@H](CC(C)C)C(=O)N[C@@H](CCCCN)C(=O)N[C@@H](CCCNC(=N)N)C(=O)N[C@@]1(C)CCC/C=C\CCC[C@@](C)(C(=O)N[C@@H](CCCCN)C(=O)N[C@@H](CCCCN)C(=O)N2CCC[C@H]2C(=O)N[C@H](C(=O)N[C@@H](CCCNC(=N)N)C(N)=O)C(C)C)NC(=O)[C@H](CCC(N)=O)NC(=O)[C@H](CCCNC(=N)N)NC(=O)[C@H](Cc2c[nH]c3ccccc23)NC1=O)C(C)C)C(C)C (Ac-LKRVWKRVFKLLKR[S5]WRQ[S5]KKPVR-NH2; staple (Z) 15-19) | 19.1 (≈ 5.89 µM) | 37.7 (≈ 11.6 µM) | 38 (≈ 11.7 µM) | 9.9 (≈ 3.05 µM)
CC(=O)N[C@@H](CC(C)C)C(=O)N[C@@H](CCCCN)C(=O)N[C@@H](CCCNC(=N)N)C(=O)N[C@H](C(=O)N[C@@H](Cc1c[nH]c2ccccc12)C(=O)N[C@@H](CCCCN)C(=O)N[C@@H](CCCNC(=N)N)C(=O)N[C@H](C(=O)N[C@@H](Cc1ccccc1)C(=O)N[C@@H](CCCCN)C(=O)N[C@@H](CC(C)C)C(=O)N[C@]1(C)CCCCCC/C=C\CCC[C@@](C)(C(=O)N[C@@H](CCCCN)C(=O)N[C@@H](CCCCN)C(=O)N2CCC[C@H]2C(=O)N[C@H](C(=O)N[C@@H](CCCNC(=N)N)C(N)=O)C(C)C)NC(=O)[C@H](CCC(N)=O)NC(=O)[C@H](CCCNC(=N)N)NC(=O)[C@H](Cc2c[nH]c3ccccc23)NC(=O)[C@H](Cc2ccc(O)cc2)NC(=O)[C@H](CCCNC(=N)N)NC(=O)[C@H](CCCCN)NC1=O)C(C)C)C(C)C (Ac-LKRVWKRVFKL[R8]KRYWRQ[S5]KKPVR-NH2; staple (Z) 12-19) | 4.9 (≈ 1.47 µM) | 4.7 (≈ 1.41 µM) | 38 (≈ 11.4 µM) | 2.6 (≈ 0.78 µM)
CC(=O)N[C@@H](CC(C)C)C(=O)N[C@@H](CCCCN)C(=O)N[C@@H](CCCNC(=N)N)C(=O)N[C@H](C(=O)N[C@@H](Cc1c[nH]c2ccccc12)C(=O)N[C@@H](CCCCN)C(=O)N[C@@H](CCCNC(=N)N)C(=O)N[C@H](C(=O)N[C@@H](Cc1ccccc1)C(=O)N[C@@H](CCCCN)C(=O)N[C@@H](CC(C)C)C(=O)N[C@@]1(C)CCC/C=C\CCC[C@@](C)(C(=O)N[C@@H](CCCNC(=N)N)C(=O)N[C@@H](CCC(N)=O)C(=O)N[C@@H](CC(C)C)C(=O)N[C@@H](CCCCN)C(=O)N[C@@H](CCCCN)C(=O)N2CCC[C@H]2C(=O)N[C@H](C(=O)N[C@@H](CCCNC(=N)N)C(N)=O)C(C)C)NC(=O)[C@H](Cc2ccc(O)cc2)NC(=O)[C@H](CCCNC(=N)N)NC(=O)[C@H](CCCCN)NC1=O)C(C)C)C(C)C (Ac-LKRVWKRVFKL[S5]KRY[S5]RQLKKPVR-NH2; staple (Z) 12-16) | 9.7 (≈ 3.01 µM) | 4.7 (≈ 1.46 µM) | 38 (≈ 11.8 µM) | 5 (≈ 1.55 µM)
CC(=O)N[C@@H](CC(C)C)C(=O)N[C@@H](CCCCN)C(=O)N[C@@H](CCCNC(=N)N)C(=O)N[C@H](C(=O)N[C@@H](Cc1c[nH]c2ccccc12)C(=O)N[C@@H](CCCCN)C(=O)N[C@@H](CCCNC(=N)N)C(=O)N[C@H](C(=O)N[C@@H](Cc1ccccc1)C(=O)N[C@@H](CCCCN)C(=O)N[C@]1(C)CCCCCC/C=C\CCC[C@@](C)(C(=O)N[C@@H](CC(C)C)C(=O)N[C@@H](CCCCN)C(=O)N[C@@H](CCCCN)C(=O)N2CCC[C@H]2C(=O)N[C@H](C(=O)N[C@@H](CCCNC(=N)N)C(N)=O)C(C)C)NC(=O)[C@H](CCCNC(=N)N)NC(=O)[C@H](Cc2c[nH]c3ccccc23)NC(=O)[C@H](Cc2ccc(O)cc2)NC(=O)[C@H](CCCNC(=N)N)NC(=O)[C@H](CCCCN)NC(=O)[C@H](CC(C)C)NC1=O)C(C)C)C(C)C (Ac-LKRVWKRVFK[R8]LKRYWR[S5]LKKPVR-NH2; staple (Z) 11-18) | 9.7 (≈ 2.92 µM) | 37.7 (≈ 11.4 µM) | 4.9 (≈ 1.48 µM) | 5 (≈ 1.51 µM)
CC(=O)N[C@@H](CC(C)C)C(=O)N[C@@H](CCCCN)C(=O)N[C@@H](CCCNC(=N)N)C(=O)N[C@H](C(=O)N[C@@H](Cc1c[nH]c2ccccc12)C(=O)N[C@@H](CCCCN)C(=O)N[C@@H](CCCNC(=N)N)C(=O)N[C@H](C(=O)N[C@@H](Cc1ccccc1)C(=O)N[C@@H](CCCCN)C(=O)N[C@@]1(C)CCC/C=C\CCC[C@@](C)(C(=O)N[C@@H](Cc2c[nH]c3ccccc23)C(=O)N[C@@H](CCCNC(=N)N)C(=O)N[C@@H](CCC(N)=O)C(=O)N[C@@H](CC(C)C)C(=O)N[C@@H](CCCCN)C(=O)N[C@@H](CCCCN)C(=O)N2CCC[C@H]2C(=O)N[C@H](C(=O)N[C@@H](CCCNC(=N)N)C(N)=O)C(C)C)NC(=O)[C@H](CCCNC(=N)N)NC(=O)[C@H](CCCCN)NC(=O)[C@H](CC(C)C)NC1=O)C(C)C)C(C)C (Ac-LKRVWKRVFK[S5]LKR[S5]WRQLKKPVR-NH2; staple (Z) 11-15) | 2.5 (≈ 0.771 µM) | 37.7 (≈ 11.6 µM) | 38 (≈ 11.7 µM) | 38.1 (≈ 11.8 µM)
